The subject of data set [1] is MX-1 tumors. Briefly: MX-1 Adjuvant Model: cyclophosphamide then MMPI, mean days to tumor weight of 1.5 g. In kind it is in vivo, Mice.
Method: Mice were implanted with MX-1 tumors and allowed to grow to 50-100 mm3. The animals were dosed with cyclophosphamide (100 or 80 mpk). This was considered Day 1. Two weeks later the animals were pair matched after tumor regression and dosing BID with the MMPI was begun until the end of the experiment. Tumors were measured weekly.
For data set [2] the following is noted: dose dependent at 27, 125 and 375 µg; cited from earlier work.
Data set [3] concerns advanced, rapidly progressive, treatment-refractory solid tumor cancers (colorectal, pancreatic, ovarian, prostate). As to conditions: cited from earlier work.
A further data set relates to PC-3 tumor cells. Briefly: Pancreatic Cell (PC-3) Model: MMP inhibitor with cisplatin, tumor volume. As to conditions: PC3 model, n=10. In kind it is in vivo. Here is the method: 1. Pancreatic Cell (PC-3) Model:
In this study, the test groups were a vehicle control, Compound M14, Compound M14 with cisplatin and cisplatin alone with n=10 for each group. The tumors were measured with a caliper and the volume calculated using the formula for the volume of an elipsoid. The cisplatin dose was 10 mpk administered by the intraperitonal route on day 8 post injecion of tumor cells Compound M14, 50 mpk, was first administered about 6:00 pm the evening of the same day that the tumor cells were injected in the morning. The same dose of Compound M14 was administered bid for each following day. Tumor volume (mm^3) was measured on day 25.

For a further data set, the system named is MX-1 breast tumor. Briefly: Breast Tumor Model: MX-1 with Compound M14 and Taxol, tumor volume. In kind it is in vivo, nude mice. To be noted: for Tumor Volume at Day 25: MX-1 model, nude mice. Here is the method: This study was carried out essentially as PC-3 model. MX-1 breast tumor pieces were implanted (with a trocar) into nude mice with n=10 per group. Dosing with Compound M14 (10 mpk or 50 mpk, PO bid) was initiated when the tumors reached a size of 60-120 mg. Dosing was continued for 26 days. Taxol was administered at a dose of 9 mpk for the first five days following the start of dosing by the interperitonal route. The tumors were measured using a caliper and the volume calculated using the formula for the volume of an elipsoid.

Data set [4] has as its system MX-1 tumors. Briefly: MX-1 Breast Tumor with Taxol: MMPI BID, endpoint 1.5 g. In kind it is in vivo, Mice. To be noted: MX-1 tumor. Here is the method:
MDS=mean days to tumor weight of 1.5 g 4. MX-1 Breast Tumor with Taxol:
Mice were implanted with MX-1 tumors and allowed to grow to 50-100 mg. The animals were pair matched and this was considered Day 1. Treatment with MMPI was begun BID on Day 1 until the end of the experiment. […] Tumors were measured weekly until an endpoint of 1.5 g was reached.

A further data set deals with SK-mes tumors. The data set can be described thus: SK-mes Tumor with Taxol: MMPI BID, endpoint 1.0 g. It is filed as in vivo, Mice. Here is the method:
5. SK-mes Tumor with Taxol
Mice were implanted with SK-mes tumors and allowed to grow to 50-100 mg. The animals were pair matched and this was considered Day 1. Treatment with MMPI was begun BID on Day 1 until the end of the experiment. Taxol was injected IP (18 or 9 mpk) QD for 5 days (days 1-5). Tumors were measured weekly until an endpoint of 1.0 g was reached.

The test system of the next data set is HT-29 tumors. The data set can be described thus: HT-29 Tumor with Irinotecan: MMPI BID, endpoint 1.0 g. In kind it is in vivo, Mice. Here is the method:
6. HT-29 Tumor with Irinotecan
Mice were implanted with HT-29 tumors and allowed to grow to 50-100 mg. The animals were pair matched and this was considered Day 1. Treatment with MMPI was begun BID on Day 1 until the end of the experiment. Irinotecan was injected IP (100 or 50 mpk) QD for 5 days (days 1-5). Tumors were measured weekly until an endpoint of 1.0 g was reached.

For data set [5] the following is noted: 50 mg/kg bid. p.o.; cited from earlier work.
The next data set has as its system melanoma. As to conditions: 100 mg/kg; cited from earlier work.
The conditions of data set [6]: dose of 25 mg/kg/day; cited from earlier work.
The test system of another data set is colonic epithelia. To be noted: variety of cell model systems including colonic epithelia; cited from earlier work.
The conditions of data set [7]: doses of 15 mg/kg/day; cited from earlier work.
The test system of another data set is Primary tumors. To be noted: cited from earlier work.
Setting [8] is: mmpi alone, Compound M14 20 mpk BID.
Where [9] appears, read: mmpi alone, Compound M14 100 mpk BID.
The mark [10] stands for this setting: taxol 9 mpk + Compound M14 20 mpk BID.
The mark [11] stands for this setting: taxol 9 mpk + Compound M14 100 mpk BID.
The mark [12] stands for this setting: taxol 18 mpk + Compound M14 20 mpk BID.
Where [13] appears, read: taxol 18 mpk + Compound M14 100 mpk BID.

These results are taken from patent US6916800B2, “Combination therapy including a matrix metalloproteinase inhibitor and an antineoplastic agent” (Pfizer Inc, priority 1998, dated 2005).

With `O=P1(N(CCCl)CCCl)NCCCO1` (stereo not shown) [cyclophosphamide, reference compound], the “MDS (mean days to tumor weight of 1.5 g)” value in the data set on MX-1 tumors [1] (cyclophosphamide 80 mpk alone) is 37.2 days; in the data set with MX-1 tumors [1] (cyclophosphamide 100 mpk alone) it was 39.5 days.
On to `CC(C)(S)[C@@H](N)C(=O)O` [D-penicillamine], for which, in data set [2], the “allergic encephalitis symptom scores” value is “reduced”.
For the molecule `CNC(=O)[C@@H](NC(=O)[C@H](CC(C)C)[C@H](O)C(=O)NO)C(C)(C)C` (relative stereo) [marimastat, N4-[2,2-dimethyl-1-[(methylamino)carbonyl]propyl]-N1,2-dihydroxy-3 (2-methylpropyl)-, [2S-[N4(R*),2R*,3S*]]-)], in [3] (clinical trials), the “most common drug-related toxicity” value is “musculoskeletal pain and stiffness”. Moreover, the “rise of cancer-specific antigens used as surrogate markers for biological activity” value in [3] (patients, Phase I/II) is given as “dose-related reduction”.
Regarding `C#CCN1CCC(C(=O)NO)(S(=O)(=O)c2ccc(Sc3ccccc3)cc2)CC1.Cl` [Compound M14, N-hydroxy-4-[[4-(phenylthio)phenyl]sulfonyl]-1-(2-propynyl)-4-piperidinecarboxamide monohydrochloride], the “Tumor Volume at Day 25” value in the data set on PC-3 tumor cells (Compound M14 50 mpk bid with cisplatin 10 mpk ip day 8) amounted to 110 mm^3; in the data set on PC-3 tumor cells (Compound M14 alone, 50 mpk bid), 480 mm^3; in the data set with MX-1 breast tumor (Compound M14 @ 10 mpk + taxol @ 9 mpk), 240 mm^3; with MX-1 breast tumor (Compound M14 @ 10 mpk PO bid alone) it was 960 mm^3; with MX-1 breast tumor (Compound M14 @ 50 mpk + taxol @ 9 mpk), 480 mm^3; in the data set with MX-1 breast tumor (Compound M14 @ 50 mpk PO bid alone), 1260 mm^3. Moreover, the “response (tumor volume)” value in the data set on MX-1 breast tumor (Compound M14 10 mpk or 50 mpk PO bid for 26 days with Taxol 9 mpk for the first five days) is “improved response”. Further, the “MDS (mean days to tumor weight of 1.5 g)” value with MX-1 tumors [1] (cyclophosphamide 0 mpk (so in the source), then Compound M14 200 mpk BID) was 53.9 days; in the data set on MX-1 tumors [1] (cyclophosphamide 80 mpk, then Compound M14 50 mpk BID) it was 44.2 days; with MX-1 tumors [1] (cyclophosphamide 100 mpk, then Compound M14 50 mpk BID) it was 43.7 days; with MX-1 tumors [1] (cyclophosphamide 100 mpk, then Compound M14 200 mpk BID), 52.7 days. In addition, the “MDS (MDS = 1.5 g)” value in the data set with MX-1 tumors [4] (setting [8]) is given as 34.7 days; in the data set with MX-1 tumors [4] (setting [9]) it was 32.2 days; in the data set on MX-1 tumors [4] (setting [10]) it was 39.3 days; in the data set with MX-1 tumors [4] (setting [11]), 46.7 days; with MX-1 tumors [4] (setting [12]), 59.3 days; in the data set on MX-1 tumors [4] (setting [13]), 61 days. Besides, the “MDS (MDS = 1.5 g)” value with MX-1 tumors [4] (taxol + mmpi as printed, taxol 9 mpk IP QD days 1-5, no MMPI dose printed) came to 30.1 days; in the data set on MX-1 tumors [4] (taxol + mmpi as printed, taxol 18 mpk IP QD days 1-5, no MMPI dose printed), 56 days. In addition, the “MDS (MDS = 1.0 g)” value in the data set with SK-mes tumors (setting [8]) is listed as 18 days; in the data set with SK-mes tumors (setting [9]), 24.7 days; with SK-mes tumors (setting [10]) it was 34.1 days; with SK-mes tumors (setting [11]), 34.8 days; in the data set on SK-mes tumors (setting [12]), 39.5 days; in the data set on SK-mes tumors (setting [13]), 43 days. Also, the “MDS (MDS = 1.0 g)” value is on record as 36.1 days in the data set with HT-29 tumors (Irinotecan 50 mpk + Compound M14 20 mpk BID); 44.4 days in the data set on HT-29 tumors (Irinotecan 50 mpk + Compound M14 100 mpk BID); 40.6 days in the data set with HT-29 tumors (Irinotecan 100 mpk + Compound M14 20 mpk BID); 51.4 days in the data set with HT-29 tumors (Irinotecan 100 mpk + Compound M14 100 mpk BID); 36 days in the data set with HT-29 tumors (setting [8]); 37.9 days in the data set with HT-29 tumors (setting [9]).
On to `CC(=O)O[C@H]1C(=O)[C@@]2(C)[C@H]([C@H](OC(=O)c3ccccc3)[C@]3(O)C[C@H](OC(=O)[C@H](O)[C@@H](NC(=O)c4ccccc4)c4ccccc4)C(C)=C1C3(C)C)[C@]1(OC(C)=O)CO[C@@H]1C[C@@H]2O` [Taxol, reference compound], for which the “Tumor Volume at Day 25” value in the data set with MX-1 breast tumor (taxol alone, 9 mpk ip first five days) came to 1280 mm^3. Moreover, the “MDS (MDS = 1.0 g)” value in the data set with SK-mes tumors (taxol alone 9 mpk IP QD days 1-5) is on record as 26.1 days; in the data set with SK-mes tumors (taxol alone 18 mpk IP QD days 1-5), 31.5 days.
Take `CCc1c2c(nc3ccc(OC(=O)N4CCC(N5CCCCC5)CC4)cc13)-c1cc3c(c(=O)n1C2)COC(=O)[C@]3(O)CC` [Irinotecan, reference compound]: the “MDS (MDS = 1.0 g)” value stood at 38.1 days in the data set on HT-29 tumors (Irinotecan alone 50 mpk IP QD days 1-5) and 36.7 days with HT-29 tumors (Irinotecan alone 100 mpk IP QD days 1-5).
For the molecule `CNC(=O)[C@H](CC1CCCCC1)NC(=O)[C@H](CC(C)C)[C@H](O)C(=O)NO` (relative stereo) [BB-1433, Butanediamide, N1-[1(cyclohexylmethyl)-2(methylamino)-2-oxoethyl]-N4,3-dihydroxy-2-(2-methylpropyl)-, [2R[N1(S*),2R*,3S*]]-], the “bone mineral density loss” value in data set [5] is on record as “inhibited”.
Consider `N.N.[Cl][Pt][Cl]` [cisplatin, Platinum, diamminedichloro-, (SP-4-2)-, reference compound], for which the “Tumor Volume at Day 25” value with PC-3 tumor cells (cisplatin alone, 10 mpk intraperitoneal on day 8) was found to be 630 mm^3.
A word on the inhibition: it is the relative decrease from the control value, in per cent. On to 2-Pyrolylthiochromone, for which the inhibition with melanoma was 37%.
Take `CC1(C)SCCN(S(=O)(=O)c2ccc(Oc3ccc(-n4ccnc4)cc3)cc2)[C@H]1C(=O)NO` [3(S)-N-hydroxy-4-(4-[4-(imidazol-1-yl)phenoxy]benzenesulfonyl)-2,2-dimethyl-tetrahydro-2H-1,4-thiazine-3-carboxamide]: in [6], the weight loss inhibition result was “gave 97.5%”.
Take `C[C@H](CCC(=O)O)[C@H]1CC[C@H]2[C@@H]3[C@@H](O)C[C@@H]4C[C@H](O)CC[C@]4(C)[C@H]3CC[C@]12C` [URSO]: in the data set with colonic epithelia, the cytotoxicity result is recorded as “non cytotoxic”. Further, the tolerability and toxicity entry in data set [7] was “extremely well tolerated and without toxicity”.
For endostatin, in the data set with Primary tumors (in vivo), the toxicity entry is “not observed”. Also, the primary tumor response entry in the data set on Primary tumors (non-refolded suspensions) was “regressed to dormant microscopic lesions”.
